Laboratory results: article PMC9098178, “SAR of Novel 3-Arylisoquinolinones: meta-Substitution on the Aryl Ring Dramatically Enhances Antiproliferative Activity through Binding to Microtubules” (Journal of Medicinal Chemistry, 2022)

Test system: purified bovine tubulin
Assay: Cell-free tubulin polymerization assay
Type: biochemical
From the text: Experimentally, the direct interaction of 4 with tubulin was investigated in a cell-free system using a tubulin polymerization assay. […] In control samples, α- and β-tubulin subunits were able to heterodimerize and assemble into microtubules in a time-dependent manner as indicated by increasing absorbance values over time. […] This indicates the incidence of fast polymerization associated with the formation of a denser microtubule mass. […] It is worth mentioning that microtubule dynamics can be potently altered by microtubule-stabilizing or -destabilizing compounds at doses 10- to 100-fold lower than those required for increasing or decreasing the microtubule polymer mass.[31]
The cell-free tubulin polymerization experiment was performed using the Tubulin Polymerization Assay Kit according to the manufacturer’s instructions (Millipore, Cat# 17-10194). The light absorbed by microtubules, which were formed upon tubulin polymerization, is directly proportional to the polymer mass. […] Immediately, the plate was placed in a 37 °C-prewarmed plate reader (BMG LABTECH FLUOstar Omega, Germany) and the absorbance was measured at 1 min intervals for 60 min at a wavelength of 350 nm. The delta absorbance (ΔA) was calculated by subtracting the absorbance values of zero time from those of the subsequent time points and then plotted versus time.

## O=c1[nH]c(-c2cccc(F)c2)cc2cc(F)ccc12 [compound 4, 6-Fluoro-3-(3-fluorophenyl)isoquinolin-1(2H)-one]
20 μM, nocodazole 10 μM
  suppression of tubulin polymerization at highest concentration: as effective in suppressing tubulin polymerization as the positive control (nocodazole)
5, 10, 20 μM, 37 °C, absorbance 350 nm
  effect on tubulin polymerization: hindered tubulin polymerization in a concentration-dependent manner
